Read-outs that look alike come from different tables or passages of the source.
Assays:
[1] = tested on: P. gingivalis ATCC 33277; test: Monospecies bacterial biofilm inhibition, static peg assay (anaerobic, 72 h); assay type: cell-based; conditions: Porphyromonas gingivalis, ATCC33277, P. gingivalis ATCC 33277, 37°C
Description: (§1) A static peg assay, described previously ([27], [74]), was used for bacterial biofilm formation. The Calgary biofilm device consists of a platform carrying 96 polystyrene pegs (Nunc no. 445497) that fits as a microtiter plate lid, with 1 peg hanging into each microtiter plate well (Nunc no. 269789). Twofold serial dilutions of the compounds (dissolved in 100% dimethyl sulfoxide [DMSO] or ethanol) in 100 μl liquid broth (TSB diluted 1/20) per well were prepared in the microtiter plate in duplicate or triplicate with a maximum concentration of 1,600 μM and a minimum concentration of 0.8 μM. Subsequently, an overnight culture of S. Typhimurium ATCC 14028, P. aeruginosa PA14, E. coli TG1, S. epidermidis, S. aureus SH1000, or S. aureus ATCC 6538 (all grown in LB) was diluted 1:100 into TSB diluted 1/20 (or TSB for S. epidermidis, S. aureus SH1000, and S. aureus ATCC 6538), whereas overnight cultures of S. liquefaciens MG44 and B. cepacia LMG1222T were diluted 1:50 into TSB diluted 1/20. P. gingivalis ATCC 33277 cultures were diluted in TSB diluted 1/20 to have a final concentration of 1 × 10^8 cells/ml. Next, 100 μl was added to each well of the microtiter plate, resulting in a total volume of 200 μl medium per well (final concentration range of compounds, 800 μM [2% DMSO or ethanol] to 0.4 μM [0.001% DMSO or ethanol]). In the next step, the pegged lid was placed on the microtiter plate and the plate was incubated for 24 h or 48 h at 25°C or 37°C without shaking. At 37°C, the plates were placed in a sealed container with wet towels on the bottom to prevent evaporation of the growth medium. Biofilms of P. gingivalis ATCC 33277 were grown anaerobically at 37°C for 72 h. During this incubation period, biofilms were formed on the surface of the pegs. After incubation, the optical density at 600 nm (OD600) for the planktonic cells in the microtiter plate was measured using a Synergy MX multimode reader (BioTek, Winooski, VT). This gives a first indication of the effect of the compounds on planktonic growth. For quantification of biofilm formation, the pegs were washed once in 200 μl PBS. The remaining attached bacteria were stained for 30 min with 200 μl 0.1% (wt/vol) crystal violet in an isopropanol-methanol-PBS solution (1:1:18, vol/vol). Excess stain was rinsed off by placing the pegs in a 96-well plate filled with 200 μl distilled water per well. After air drying of the pegs (30 min), the dye bound to the adherent biofilm was extracted with 30% glacial acetic acid (200 μl per well of a 96-well plate). The optical density at 570 nm (OD570) of each well was measured using a Synergy MX multimode reader (BioTek, Winooski, VT). The concentration of each compound needed to inhibit biofilm formation by 50% (BIC50) and the concentration of each compound needed to inhibit planktonic growth by 50% (IC50) were determined from the concentration gradient by using nonlinear curve fitting (GraphPad Prism software, version 5; GraphPad Software, Inc., La Jolla, CA). In the same assay, the effect on planktonic growth was evaluated. The activity was considered biofilm specific if the BIC50 was at least two times lower than the IC50. Data represent the means from at least 3 technical repeats with the corresponding 95% confidence intervals (provided in the supplemental material).

[2] = tested on: S. epidermidis; test: Monospecies bacterial biofilm inhibition, static peg assay; assay type: cell-based, Staphylococcus epidermidis; conditions: Staphylococcus epidermidis, 37°C
Description: as §1

[3] = tested on: S. aureus SH1000; test: as above; assay type: cell-based, Staphylococcus aureus
Description: as §1

[4] = tested on: osteoblasts (OB); test: Mammalian cell viability assay, trypan blue staining; assay type: cell-based; conditions: 12.5 μM, 6 days of exposure
Description: (§2) The viability of two human primary cell types, namely, osteoblasts (OB) and bone marrow-derived mesenchymal stem cells (MSC), was tested according to the ISO 10993-5 standard, as previously described ([76]). Briefly, cells were seeded in 96-well tissue culture test plates (TPP; Trasadingen, Switzerland) at 5 × 10^3 cells/cm^2 in cell culture medium (advanced Dulbecco modified Eagle's medium [DMEM]) supplemented with 10% serum, 1× GlutaMAX, and 0.05 mg/ml gentamicin and were allowed to attach overnight. On the next day, the cells were exposed to (i) cell culture medium and medium with the corresponding control (0.5% ethanol or DMSO; negative controls), (ii) medium with 0.05% phenol (cytotoxic control), and (iii) medium with compounds (12.5 μM) and incubated for 2 h, 48 h, and 6 days (8 repeats for each condition). At each time point, the numbers of viable and dead cells were determined directly by trypan blue staining and indirectly by measuring metabolic activity with 3-(4,5-dimethylthiazol-2-yl)-2,5-diphenyltetrazolium bromide (MTT) staining.
The medium was removed from the wells, 1/3 trypan blue in DMEM was added to the cells, and the cells were incubated for 3 min, after which the trypan blue was removed and DMEM was added to the wells. In each of four wells, two microscopy fields were counted for viable (transparent) and dead (blue) cells.

[5] = tested on: osteoblasts (OB); test: Metabolic activity, MTT staining; assay type: cell-based; conditions: 12.5 μM, 6 days of treatment
Description: as §2
(§3) The medium was removed from the wells, and 100 μl of medium supplemented with 10% serum and 0.5 mg/ml MTT was added to the cells. The cells were incubated overnight at 37°C in 5% CO2. On the next day, the medium with MTT was removed and 100 μl acidic isopropanol was added. The cells were then centrifuged at 2,300 × g, and 50 μl of the supernatant was transferred to a new 96-well plate. The absorbance at 570 nm was measured, and the background at 660 nm was measured. Four wells per condition were examined.

[6] = tested on: bone marrow-derived mesenchymal stem cells (MSC); test: Metabolic activity, MTT staining; assay type: cell-based; conditions: 12.5 μM, 6 days of treatment
Description: as §2, §3

[7] = read-out: IC50 (planktonic growth)
[8] = Staphylococcus aureus, SH1000, S. aureus SH1000, 37°C, read-out: BIC50
[9] = Staphylococcus aureus, SH1000, S. aureus SH1000, 37°C, read-out: IC50 (planktonic growth)

| metabolic activity of OB (MTT) compared to solvent control [5] | metabolic activity of MSC (MTT) compared to solvent control [6] | Compound | IC50 ([1]; read-out: BIC50) | IC50 [1, 7] | IC50 ([2]; read-out: BIC50) | IC50 [2, 7] | IC50 [3, 8] | IC50 [3, 9] | IC50 ([3]; S. aureus SH1000, 37°C, read-out: BIC50) | proliferation of OB (trypan blue) [4] | viability of OB (trypan blue) [4] |
| --- | --- | --- | --- | --- | --- | --- | --- | --- | --- | --- | --- |
| – | – | CCCCCn1c(-c2ccccc2)cnc1N [Compound 1] | 13.2 µM | 32.1 µM | ~202 µM | ~329 µM | 163 µM | > 400 µM | – | – | – |
| – | – | CCCCCCCCn1c(-c2ccc(Cl)cc2)cnc1N [Compound 2] | 3.9 µM | 6 µM | – | ~11.1 µM | 2 to 6 µM | 8.3 µM | 3.4 µM | – | – |
| – | – | CC(C)CNc1ncc(-c2ccc(Cl)cc2)[nH]1 [Compound 3] | 5.3 µM | 5.1 µM | > 400 µM | 86.2 µM | 200 µM | 175 µM | – | – | – |
| – | – | CCCCNc1ncc(-c2ccc(Br)cc2)[nH]1 [Compound 4] | 3.7 µM | 8.2 µM | > 400 µM | 54.4 µM | 66.5 µM | 89.4 µM | – | – | – |
| – | – | Clc1ccc(-c2cnc(NC3CCCC3)[nH]2)cc1 [Compound 5] | 5.7 µM | 4 µM | > 400 µM | 39.5 µM | 70.6 µM | 71.5 µM | – | – | – |
| – | – | Brc1ccc(-c2cnc(NCCn3cc(C4CC4)nn3)[nH]2)cc1 [Compound 6] | 18.1 µM | 19.5 µM | > 400 µM | > 400 µM | > 400 µM | > 400 µM | – | – | – |
| – | – | CCCCCCCCn1c(-c2ccccc2)cnc1NCC(C)C [Compound 8a] | – | – | – | – | – | – | – | slightly reduced | – |
| increased | increased | CCCCCCCCn1c(-c2ccc(Br)cc2)cnc1NCC(C)C [Compound 8c] | – | – | – | – | – | – | – | increase in proliferation | very slightly reduced |
| increased | increased | CCCCCCCCn1c(-c2ccc(Cl)c(Cl)c2)cnc1NCC(C)C [Compound 8d] | – | – | – | – | – | – | – | increase in proliferation | – |
| – | – | CCCCCCCCn1c(-c2ccccc2)cnc1NC1CCCC1 [Compound 8e] | – | – | – | – | – | – | – | slightly reduced | – |
| increased | increased | CCCCCCCCn1c(-c2ccc(Br)cc2)cnc1NC1CCCC1 [Compound 8g] | – | – | – | – | – | – | – | increase in proliferation | – |
| increased | increased | CCCCCCCCn1c(-c2ccc(Cl)c(Cl)c2)cnc1NC1CCCC1 [Compound 8h] | – | – | – | – | – | – | – | increase in proliferation | – |

Source: paper PMC5075052, “Modulation of the Substitution Pattern of 5-Aryl-2-Aminoimidazoles Allows Fine-Tuning of Their Antibiofilm Activity Spectrum and Toxicity” (Antimicrobial Agents and Chemotherapy, 2016)
